{"source": "patent US20080311076A1", "about": "“Morpholinylanilinoquinazoline Derivatives For Use As Antiviral Agents” (ARROW THERAPEUTICS LIMITED, priority 2004, published 2008)", "tested_on": "HCV replicon cells Huh 9B", "assay": "HCV replicon assay (luciferase) in Huh 9B replicon cells", "type": "cell-based", "conditions": "Hepatitis C virus; concentration reducing replicon level (luciferase activity) by 50% vs untreated cell control; 72 h incubation", "method": "HCV replicon cells Huh 9B (ReBlikon), containing the firefly luciferase—ubiquitin—neomycin phosphotransferase fusion protein and EMCV-IRES driven HCV polyprotein with cell culture adaptive mutations.\nCells were cultured at 37° C. in a 5% CO2 environment and split twice a week on seeding at 2×10E6 cells/flask on day 1 and 1×10E6 3 days later. Some 0.25 mg/ml G418 was added to the culture medium (125 ul per 25 ml) but not the assay medium.\nThe culture medium consisted of DMEM with […] glucose and glutamax (Gibco 61965-026) supplemented with 1× non-essential amino acids, penicillin (100 IU/ml)/streptomycin (100 μg/ml), FCS (10%, 50 ml) and 1 mg/ml G418 (Invitrogen cat no 10131-027) & 10% foetal calf serum.\nA flask of cells was trypsinised and a cell count carried out. Cells were diluted to 100,000 cells/ml and 100 μl of this used to seed one opaque white 96-well plate (for the replicon assay) and one flat-bottomed clear plate (for the tox assay) for every seven compounds to be tested for IC50. Wells G12 and H12 were left empty in the clear plate as the blank. Plates were then incubated at 37° C. in a 5% CO2 environment for 24 h.\nOn the following day compound dilutions are made up in medium at twice their desired final concentration in a clear round bottomed plate. All dilutions have a final DMSO concentration of 1%.\nOnce the dilution plate had been made up, controls and compounds were transferred to the assay plate (containing the cells) at 100 μl/well in duplicate plates.\nException: in the white (replicon) plate, no compound was added to wells A1 and A2 and 100 μl of 1% DMSO was added to these instead. In the clear (Tox) plate, wells E12 & F12 only contained the DMSO control. Plates were then incubated at 37° C. with 5% CO2 for 72 h.\nAt the end of the incubation time, the cells in the white plate were harvested by washing with 200 μl/well of warm (37° C.) PBS and lysed with 20 μl cell culture lysis buffer (Promega). After 5 min incubation @ RT, luciferin solution was added to the luciferase assay buffer (LARB at 200 μl per 10 ml LARB. The M injector of the microplate luminometer (Lmax, Molecular Devices) was primed with […] injections. Plate were inserted into the luminometer and 100 μl luciferase assay reagent was added by the injector on the luminometer. The signal was measured using a 1 second delay followed by a 4 second measurement programme. The IC50, the concentration of the drug required for reducing the replicon level by 50% in relation to the untreated cell control value, can be calculated from the plot of the percentage reduction of the luciferase activity vs. drug concentration."}
{"smiles": "COc1cc(Nc2ncnc3ccc(-c4cccs4)cc23)ccc1N1CCOCC1", "note": "[Example 42, (3-Methoxy-4-morpholin-4-yl-phenyl)-(6-thiophen-2-yl-quinazolin-4-yl)-amine]", "values": [{"measurement": "IC50", "value": "< 1", "unit": "µM"}]}
{"smiles": "Cc1cc(N2CCOCC2)ccc1Nc1ncnc2ccc(-c3cccs3)cc12", "note": "[Example 43, (2-Methyl-4-morpholin-4-yl-phenyl)-(6-thiophen-2-yl-quinazolin-4-yl)-amine]", "values": [{"measurement": "IC50", "value": "< 1", "unit": "µM"}]}
{"smiles": "Cc1cc(Nc2ncnc3ccc(-c4cccs4)cc23)ccc1N1CCOCC1", "note": "[Example 44, (3-Methyl-4-morpholin-4-yl-phenyl)-(6-thiophen-2-yl-quinazolin-4-yl)-amine]", "values": [{"measurement": "IC50", "value": "< 1", "unit": "µM"}]}
{"smiles": "CCN(c1ccc(N2CCOCC2)cc1)c1ncnc2ccc(-c3cccs3)cc12", "note": "[Example 45, Ethyl-(4-morpholin-4-yl-phenyl)-(6-thiophen-2-yl-quinazolin-4-yl)-amine]", "values": [{"measurement": "IC50", "value": "< 5", "unit": "µM"}]}
{"smiles": "CN(c1ccc(N2CCOCC2)cc1)c1ncnc2ccc(I)cc12", "note": "[Example 46, (6-Iodo-quinazolin-4-yl)-methyl-(4-morpholin-4-yl-phenyl)amine]", "values": [{"measurement": "IC50", "value": "< 1", "unit": "µM"}]}
{"smiles": "CC(C)CCN(c1ccc(N2CCOCC2)cc1)c1ncnc2ccc(I)cc12", "note": "[Example 47, (6-Iodo-quinazolin-4-yl)-(3-methyl-butyl)-(4-morpholin-4-yl-phenyl)-amine]", "values": [{"measurement": "IC50", "value": "< 5", "unit": "µM"}]}
{"smiles": "CC(C)N(c1ccc(N2CCOCC2)cc1)c1ncnc2ccc(-c3cccs3)cc12", "note": "[Example 48, Isopropyl-(4-morpholin-4-yl-phenyl)-(6-thiophen-2-yl-quinazolin-4-yl)-amine]", "values": [{"measurement": "IC50", "value": "< 5", "unit": "µM"}]}
{"smiles": "CC(C)CCN(c1ccc(N2CCOCC2)cc1)c1ncnc2ccc(-c3cccs3)cc12", "note": "[Example 49, (3-Methyl-butyl)-(4-morpholin-4-yl-phenyl)-(6-thiophen-2-yl-quinazolin-4-yl)-amine]", "values": [{"measurement": "IC50", "value": "< 5", "unit": "µM"}]}
{"smiles": "c1ccc(COc2ccccc2-c2ccc3ncnc(Nc4ccc(N5CCOCC5)cc4)c3c2)cc1", "note": "[Example 50, [6-(2-Benzyloxy-phenyl)-quinazolin-4-yl]-(4-morpholin-4-yl-phenyl)-amine]", "values": [{"measurement": "IC50", "value": "< 5", "unit": "µM"}]}
{"smiles": "c1ccc(COc2ccc(-c3ccc4ncnc(Nc5ccc(N6CCOCC6)cc5)c4c3)cc2)cc1", "note": "[Example 51, [6-(4-Benzyloxy-phenyl)-quinazolin-4-yl]-(4-morpholin-4-yl-phenyl)-amine]", "values": [{"measurement": "IC50", "value": "< 5", "unit": "µM"}]}
